ChEMBL document CHEMBL1201862, “PubChem BioAssay data set” (2004)
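Tested at 5 concentrations; 48 h exposure; 96-well plates; endpoints linearly interpolated, else capped at highest concentration. GI50 = concentration required for 50% inhibition of growth.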 The source made the active and inactive calls. Cut-off read from the data, not from the text of the source: active = GI50 up to about 1.1 µM and inactive = higher.

How the values were obtained:
Test in all cases: NCI tumour cell line growth inhibition, 48 h
[1] = system: HCT-15
[2] = system: SW-620
[3] = system: SK-OV-3
[4] = system: Hs-578T
[5] = system: OVCAR-3
[6] = system: KM12
[7] = system: TK-10
[8] = system: HOP-62
[9] = system: IGROV-1
[10] = system: HOP-92
[11] = system: NCI-H23
[12] = system: SN12C
[13] = system: DU-145
[14] = system: SF-268
[15] = system: SK-MEL-5
[16] = system: COLO 205
[17] = system: NCI-H460
[18] = system: EKVX
[19] = system: U-251
[20] = system: MDA-MB-231
[21] = system: NCI-H226
[22] = system: CAKI-1
[23] = system: SK-MEL-28
[24] = system: SF-539
[25] = system: SNB-19
[26] = system: UACC-62
[27] = system: SF-295
[28] = system: PC-3
[29] = system: HT-29
[30] = system: BT-549
[31] = system: MDA-MB-435
[32] = system: T47D
[33] = system: UO-31
[34] = system: SK-MEL-2
[35] = system: M14
[36] = system: MCF7
[37] = system: A498
[38] = system: OVCAR-5
[39] = system: MDA-N
[40] = system: RXF 393
[41] = system: HCC 2998
[42] = system: NCI-H522
[43] = system: A549
[44] = system: ACHN
[45] = system: HCT-116
[46] = system: SNB-75
[47] = system: LOX IMVI
[48] = system: UACC-257
[49] = system: OVCAR-8
[50] = system: NCI/ADR-RES
[51] = system: OVCAR-4
[52] = system: SR
[53] = system: MOLT-4
[54] = system: 786-0
[55] = system: RPMI-8226
[56] = system: Malme-3M
[57] = system: K562
[58] = system: HL-60
[59] = system: CCRF-CEM

Measured: GI50

C1CSCCSCSCCS1
inactive: [2] > 100 µM | [3] > 100 µM | [4] > 100 µM | [5] > 100 µM | [6] > 100 µM | [7] > 100 µM | [8] > 100 µM | [9] > 100 µM | [10] > 100 µM | [11] > 100 µM | [12] > 100 µM | [13] > 100 µM | [14] > 100 µM | [15] > 100 µM | [16] > 100 µM | [17] > 100 µM | [18] > 100 µM | [19] > 100 µM | [20] > 100 µM | [21] > 100 µM | [22] > 100 µM | [23] > 100 µM | [24] > 100 µM | [25] > 100 µM | [26] > 100 µM | [27] > 100 µM | [28] > 100 µM | [29] > 100 µM | [30] > 100 µM | [31] > 100 µM | [32] > 100 µM | [33] > 100 µM | [34] > 100 µM | [35] > 100 µM | [36] > 100 µM | [37] > 100 µM | [38] > 100 µM | [39] > 100 µM | [40] > 100 µM | [41] > 100 µM | [42] > 100 µM | [43] > 100 µM | [44] > 100 µM | [45] > 100 µM | [46] 48.3 µM | [47] > 100 µM | [48] > 100 µM | [49] > 100 µM | [50] > 100 µM | [51] > 100 µM
> 100 µM: [1]

Oc1cc2c3c(c1)c1cc4c(cc1c[n+]3CC2)OCO4
13.6 µM: [1]
inactive: [2] 2.86 µM | [3] 16.1 µM | [5] 4.88 µM | [6] 1.82 µM | [7] 13 µM | [8] 8.45 µM | [9] 2.4 µM | [10] 15.2 µM | [11] 1.9 µM | [12] 1.29 µM | [13] 3.23 µM | [15] 4.97 µM | [16] 3.73 µM | [17] 2.43 µM | [18] 7.73 µM | [20] 2.79 µM | [21] 2.69 µM | [22] 10.2 µM | [23] 7.82 µM | [24] 2.28 µM | [25] 1.8 µM | [26] 7.83 µM | [27] 2.97 µM | [28] 3 µM | [55] 1.77 µM | [56] 1.16 µM | [29] 4.6 µM | [30] 1.77 µM | [57] 1.57 µM | [31] 5.5 µM | [32] 3.47 µM | [33] 5.42 µM | [34] 9.68 µM | [35] 32.1 µM | [36] 7.69 µM | [37] 35.4 µM | [38] 45.6 µM | [39] 8.63 µM | [58] 3.97 µM | [40] 24.5 µM | [41] 4.4 µM | [43] 5.71 µM | [44] 3.1 µM | [45] 1.55 µM | [46] 2.25 µM | [47] 1.63 µM | [48] 8.83 µM | [59] 2.84 µM | [51] 3.64 µM
active: [52] 0.671 µM | [4] 0.906 µM | [14] 0.224 µM | [53] 0.242 µM | [19] 0.971 µM | [54] 1.08 µM | [42] 0.492 µM | [49] 0.748 µM

COc1ccc(-c2cc(-c3cc(F)c(Cl)cc3Cl)[nH]n2)cc1OC
inactive: [2] 29.6 µM | [3] 31.9 µM | [52] 11.1 µM | [4] 43.7 µM | [5] 15.2 µM | [6] 26.4 µM | [7] 43.4 µM | [8] 39.9 µM | [9] 19.2 µM | [10] 20.6 µM | [11] 30 µM | [12] 22.7 µM | [13] 33.1 µM | [14] 29.2 µM | [15] 17.1 µM | [16] 19.2 µM | [53] 14.5 µM | [17] 32.1 µM | [18] 22.2 µM | [19] 26.9 µM | [20] 30.4 µM | [21] 20.8 µM | [22] 50.8 µM | [23] 48.6 µM | [24] 15.9 µM | [25] 49.4 µM | [54] 19.6 µM | [27] 18.3 µM | [28] 21.2 µM | [55] 17.3 µM | [56] 30.4 µM | [29] 22.1 µM | [30] 30.2 µM | [57] 46 µM | [31] 46.2 µM | [32] 28.6 µM | [33] 85.3 µM | [34] 79.6 µM | [35] 75 µM | [38] > 100 µM | [39] 52.8 µM | [58] 15.6 µM | [40] 15.1 µM | [42] 20.2 µM | [43] 40.7 µM | [44] 7.76 µM | [45] 25.7 µM | [46] 23.3 µM | [47] 18.4 µM | [48] 32.7 µM | [49] 34.4 µM | [50] 25.1 µM | [59] 11.6 µM | [51] 32.4 µM
21.2 µM: [1]

CCCCCCCCCc1nn2c(Cc3ccccc3)nnc2s1
inactive: [2] 17.6 µM | [3] 25.5 µM | [4] 20.8 µM | [5] 17.2 µM | [6] 25 µM | [7] 24.6 µM | [8] 19.9 µM | [11] 19.2 µM | [12] 18.2 µM | [13] 22.4 µM | [14] 16.7 µM | [15] 15.9 µM | [16] 17.5 µM | [53] 17.3 µM | [17] 18.5 µM | [18] 15.5 µM | [19] 18.7 µM | [20] 24.5 µM | [22] 30.3 µM | [23] 17.7 µM | [24] 18.1 µM | [25] 18.2 µM | [54] 19.2 µM | [26] 18 µM | [27] 18.9 µM | [28] 22.1 µM | [55] 23.6 µM | [30] 18.8 µM | [57] 32.5 µM | [31] 26.3 µM | [32] 24.7 µM | [33] 13.1 µM | [34] 19.8 µM | [35] 20.8 µM | [36] 41.1 µM | [37] 18.2 µM | [38] 14.4 µM | [39] 20.6 µM | [40] 18.5 µM | [42] 14 µM | [43] 20.5 µM | [44] 20 µM | [45] 18 µM | [46] 26.4 µM | [48] 23.5 µM | [49] 15.3 µM | [50] 16.7 µM | [51] 20 µM
19.5 µM: [1]
